Legend:
gastric mucosa = assay: PD: Gastric Mucosal Integrity Test (gastric mucosal potential difference); type: in vivo, rat (male Crj:SD); set-up: key: 5: Same as the control with no recognizable damage at all.; 4: Though a slight PD-decreasing tendency suggesting a slight possibility of mucosal damage is found, there is no problem.; 3: Though a weak decrease in PD and a possibility of a weak mucosal damage is recognized, there is no substantial problem.; 2: Medium degree of decrease in PD is found and a mucosal damage is recognized.; 1: Heavy degree of decrease in PD is found and a remarkable mucosal damage is recognized; settings: 100 mg/kg into chamber, rats, 60 minutes
Protocol: PD: Gastric Mucosal Integrity Test
In this case, since the sample compound has a necrotizing effect, it is inappropriate as an anti-ulcer medicament.
Therefore, the gastric mucosal potential difference (PD), which reflects the integrity of the gastric mucosa, is measured so as to confirm that the sample compound has no damaging effect on gastric mucosa, which is toxicity at gastric mucosal level.
Male Crj:SD rats (7 to 8-week-old) were fasted overnight, but allowed free access to water, and then, under urethane anesthesia (1.25 g/kg, i.p.), fixed to a cork board on its back. The abdomen of each rat was incised, and a small incision was made in the forestomach. Then, the inside of the stomach was washed with physiological saline heated at 37° C. From the forestomach, along the greater curvature thereof, the stomach was incised without damaging blood vessels. After the height of the cork board was adjusted on a jack, the stomach was mounted on ex vivo chamber. The area of the gastric mucosa exposed to the inside of this chamber was 2.5 cm^2. The inside of the chamber was perfused with physiological saline warmed at 37° C. by micro tube pump. By using an agar bridge containing 3M KCl, the potential difference between the chamber and the abdominal cavity was measured by a PD meter. Here, the rectal temperature was measured to control the body temperature during the experiment. After the PD was sufficiently stabilized, the perfusate was stopped and then 100 mg/10 ml/kg of the sample compound dissolved or suspended in an aqueous solution of 0.5% sodium carboxymethyl cellulose or 0.05% Tween 80 was administered into the chamber, while PD was recorded for 60 minutes. To a control, the vehicle was administered.
The change in PD during 60 minutes after the administration of 100 mg/kg of the sample compound was collectively studied and, with reference to the positive control, classified into 5 levels as follows:
5: Same as the control with no recognizable damage at all.
3: Though a weak decrease in PD and a possibility of a weak mucosal damage is recognized, there is no substantial problem.
2: Medium degree of decrease in PD is found and a mucosal damage is recognized.
1: Heavy degree of decrease in PD is found and a remarkable mucosal damage is recognized.

stress ulcer = assay: WIS: Restraint and Water Immersion Stress-Induced Ulcer Inhibition Test; type: in vivo, rat (male Crj:SD or Slc:SD); settings: for WIS: ulcer formation inhibitory rate: 100 mg/kg oral, rats, water immersion stress 7 hours
Protocol: WIS: Restraint and Water Immersion Stress-Induced Ulcer Inhibition Test
The degree of inhibition of the stress ulcer formation is tested.
Male Crj:SD or Slc:SD rats (6 to 7-week-old) were fasted overnight, but allowed free access to water. Each group has 5 to 8 of these rats. The sample compound was dissolved or suspended in an aqueous solution of 0.3% sodium carboxymethylcellulose or 0.05% Tween 80 and then was orally administered (100 mg/10 ml/kg). To a control group, the vehicle was administered. 10 minutes later, the rats were placed in a stress cage and immersed to the level of xipfoid process in a water bath (21° C.) for 7 hours. At the end of the stress, the rats were sacrificed by inhalation of ether or carbon dioxide. Then, the stomach of each was removed, inflated by injecting 10 ml of 5% formalin neutral buffer solution, and immersed in 1% formalin neutral buffer solution for 30 minutes or more to be fixed. The stomach was incised along the greater curvature and then the length of each erosion in the glandular portion was determined under dissecting microscope. The sum of the length of erosions per stomach was defined as ulcer index (UI).
The effect obtained when 100 mg/kg of the sample compound had been administered was expressed as ulcer formation inhibitory rate (%) as follows: [formula] VOL, TAO: Acid Secretion Inhibition Test In Vivo i) Meaning

in vitro = settings: rabbit, gastric mucosal cells
Male Slc:ICR mice = tested on: Male Slc:ICR mice; set-up: species or system mouse (male Slc:ICR); settings: mouse, in vivo
Protocol: AT: Single Dose Toxicity Pretest
Male Slc:ICR mice (5-week-old) were used. Each group has 3 to 5 mice and each mouse was fasted, but allowed free access to water, for 4 to 5 hours from 9 a.m. in the test day. Then, 2,000 mg/10 ml/kg of the sample compound dissolved or suspended in an aqueous solution of 0.5% sodium carboxymethyl cellulose was orally administered thereto. To a control, only the vehicle was administered. […] The body weight was measured before and after the fasting as well as at the same time everyday. The dead animals were immediately subjected to autopsy and their organs were observed microscopically. Also, the living animals were sacrificed with ether or carbon dioxide one week after the administration and then their organs were observed microscopically.
The toxicity at the single dose of 2,000 mg/kg of the sample compound was expressed as being classified into 5 levels.
5: Mortality rate is 0%; no toxicity is found at all both in behavior and organs.
4: Mortality rate is 0%; while no toxicity is found in organs, slight toxicity is observed in behavior and body weight increase.
3: While there is a dead animal (though not all the animals are dead), no toxicity is found in organs.
2: Regardless of whether there is a dead animal or not, toxicity is found in organs.
1: All the animals are dead.

[1] = tested on: isolated gastric fundic gland; assay: CAP: Acid Secretion Inhibition Test In Vitro ([14C]-aminopyrine uptake); type: cell-based, rabbit (male Japanese White); settings: Oryctolagus cuniculus, 40 min; 10^-5 M compound, 10^-5 M histamine, rabbit isolated gastric fundic gland, 37° C., 40 minutes; read-out: CAP: acid secretion inhibitory rate
Protocol: With respect to the gastric juice volume (VOL) and the total acid output (TAO), the effects obtained when 100 mg/kg of the sample compound had been administered were expressed as their respective inhibitory rates (%) as follows: [formula] CAP: Acid Secretion Inhibition Test In Vitro i) Meaning
The acid secretion inhibitory activity in a cell level is studied. It can also be used for studying the mechanism of the effect.
ii-a) Preparation of isolated gastric fundus gland suspension
First, an isolated gastric fundic gland sample was prepared. […] Immediately thereafter, the stomach was removed and, after its pyloric and cardiac antrum were severed, incised along its greater curvature into two sheets. The gastric contents adhering to the mucosal surface was washed out with ice-cooled PBS (-) and then carefully washed therein. The gastric wall was spread on a cork board with its mucosal surface facing up and the feed and mucus thereon were completely removed with sterile gauze. The mucosa was separated therefrom by a spatula and then collected in ice-cooled PBS (-). After being washed twice with PBS (-), the mucosa was minced into 2-3 mm^3 pieces by scissors. These pieces were further washed twice with a nutrient solution. The nutrient solution comprises 132.4 mM of NaCl, 5.4 mM of KCl, 5 mM of Na2 HPO4.12H2 O, 1 mM of NaH2 PO4.2H2 O, 1.2 mM of MgSO4, 1 mM of CaCl2, 25 mM of HEPES, 2 mg/ml of glucose, and 1 mg/ml of BSA. Into 70 ml of the nutrient solution containing 1 mg/ml of collagenase, minced mucosal pieces were dispersed and intensely stirred in a conical flask with a stirrer at 37° C. for 40 to 60 minutes. During this period, 100% O2 was sprayed on the nutrient solution surface and the pH was appropriately measured such that it was immediately adjusted to pH 7.4, when the value was therebelow, with a base. The nutrient solution was added to the reaction solution so as to attain the total amount of about 200 ml. After being filtered through a mesh, the suspension was divisionally introduced into 50 ml centrifuge tubes and left for 15 minutes such that gastric fundic gland was deposited. The supernatant was repeatedly removed by an aspirator, dispersed in the nutrient solution, and then left such that the gastric fundic gland was washed three times. At this time, without using a pipette, the suspension was alternately introduced into two centrifuge tubes so as to effect dispersion. The number of cells was counted under microscope and adjusted to 1.6×10^6 cells/ml.
ii-b) [^14 C]-aminopyrine uptake test
Then, [^14 C]-aminopyrine uptake test was performed. After an Eppendorf tube was weighed, 10 μl (final concentration: 10^-5 M) of histamine dissolved in the above-mentioned nutrient solution, 10 μl (final concentration: 10^-5 M) of the test compound dissolved in DMSO, and 10 μl (final concentration: 0.05 μCi/ml) of [^14 C]-aminopyrine diluted with the nutrient solution were introduced therein and then 970 μl of the isolated gastric fundic gland suspension prepared above was added thereto. Subsequently, this mixture was shaken at 37° C. for 40 minutes at 125 cycles/minute. After being centrifuged for 30 minutes, 200 μl of its supernatant was collected into a mini-vial, while the rest was removed by an aspirator. The gland pellet was completely dried as the tube with its lid being opened was kept for one night in a drying oven at 80° C. and then the lid was closed and the weight was determined at room temperature. Then 100 μl of 1N KOH was added thereto and the tube with its lid being closed was treated at 60° C. for 1 to 2 hours so as to dissolve the pellet. Then, the contents thereof were transferred to a mini-vial. Into the mini-vial containing the supernatant or gland pellet, 4 ml of Atomlite™ was added and then the radioactivity was measured by a liquid scintillation counter. […]

Structure (SMILES) | PD: change in gastric mucosal potential difference, 5 levels (gastric mucosa) | WIS: ulcer formation inhibitory rate (stress ulcer) | cytotoxicity at 4 h, 100 µM (in vitro) | AT: toxicity at single dose, 5 levels (Male Slc:ICR mice) | inhibition at 10 µM [1] | effect (anti-ulcer tests) (stress ulcer; result in words, comparison of examples within compound group 1-1) | anti-ulcer effect (stress ulcer; result in words)
COc1cc(C(=O)NCCN2CCCCC2)cc(OC)c1OCC=C(C)C [Example 27] | 5 | 82% | -11% | – | – | – | –
CC(C)=CCC/C(C)=C/COc1ccc(C(=O)NCCN2CCCCC2)cc1OC/C=C(\C)CCC=C(C)C [Example 11] | 5 | 91% | 23% | 4 | – | – | –
CC(C)=CCC/C(C)=C/CC/C(C)=C/COc1ccc(C(=O)NCCN2CCOCC2)cc1 [Example 32] | – | 55% | 58% | 5 | 99% | – | –
COc1cc(C(=O)NCCN2CCOCC2)cc(OC/C=C(\C)CCC=C(C)C)c1OC [Example 44] | – | 61% | 22% | 4 | 100% | – | –
COc1ccc(C(=O)NCCN2CCCCC2)cc1OC/C=C(\C)CCC=C(C)C [Example 23] | – | 56% | 43% | 3 | – | – | –
CC(C)=CCC/C(C)=C/COc1cccc(C(=O)NCCN2CCOCC2)c1 [Example 29] | – | 63% | 16% | 5 | 99% | – | –
COc1cc(C(=O)NCCN2CCOCC2)cc(OC)c1OC/C=C(/C)CCC=C(C)C [Example 43] | 5 | 41% | 10% | 4 | – | – | –
CC(C)=CCC/C(C)=C/COc1ccc(F)cc1C(=O)NCCN1CCCCC1 [Example 6] | – | 80% | 16% | 3 | – | the effect has been maintained | –
COc1cc(C(=O)NCCN2CCOCC2)cc(OC)c1OC/C=C(\C)CCC=C(C)C [Example 42] | – | 69% | 0% | 4 | 102% | – | –
CC(C)=CCC/C(C)=C/COc1cc(OC/C=C(\C)CCC=C(C)C)cc(C(=O)NCCN2CCCCC2)c1 [Example 14] | – | 66% | 26% | 3 | – | – | –
COc1cc(C(=O)NCCN2CCCCC2)cc(OC/C=C(\C)CCC=C(C)C)c1OC [Example 24] | – | 72% | 30% | 5 | – | – | more anti-ulcer effect
CC(C)=CCOc1cc(C(=O)NCCN2CCOCC2)cc(OCC=C(C)C)c1OCC=C(C)C [Example 39] | – | 76% | – | 4 | – | – | –
CC(C)=CCC/C(C)=C/COc1ccc(OC/C=C(\C)CCC=C(C)C)c(C(=O)NCCN2CCCCC2)c1 [Example 13] | – | 67% | -5% | 5 | 100% | – | –
CC(C)=CCC/C(C)=C/COc1cccc(C(=O)NCCN2CCCCC2)c1 [Example 4] | – | 84% | – | 3 | – | – | –
COc1ccc(OC/C=C(\C)CCC=C(C)C)c(C(=O)NCCN2CCCCC2)c1 [Example 20] | – | 71% | 35% | 3 | – | – | –
COc1cc(C(=O)NCCN2CCCCC2)ccc1OC/C=C(\C)CCC=C(C)C [Example 25] | – | 44% | 48% | 3 | – | – | –
CC(C)=CCOc1ccc(OCC=C(C)C)c(C(=O)NCCN2CCCCC2)c1 [Example 17] | – | 70% | -16% | 3 | 100% | – | –

Reference: patent US5814634A, “Alkylenediamine derivative anti-ulcer drug and antibacterial drug” (Shiseido Co. Ltd., priority 1996, dated 1998)
